# Laboratory results: the supplement of paper PMC9013687
# Experiments:
# Danio rerio embryo [1] = tested on: Danio rerio embryo
# Method: (§1)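 Zebrafish embryos (UFZ-OBI strain) were exposed from 2 hpf for 48 h (2 dpf) or 96 h (4 dpf) at 28 °C; spontaneous tail coiling was scored at 25 hpf. Morphological features from automated image analysis (FishInspector), heart rate and locomotor response were fitted with drc models. Quantal endpoints were dichotomised at 2.5 SD from controls and fitted with a log-logistic model; heart rate, pigmentation and STC were normalised to the replicate control mean. Betamethasone was tested as betamethasone dipropionate, diflorasone as diflorasone diacetate.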
# Danio rerio embryo [2] = assay: EC10 Eye size_Decrease; higher = less potent; conditions: exposure time: 2 dpf
# Method: as §1
# Danio rerio embryo [3] = assay: EC20 Curvature_Increase; higher = less potent; conditions: exposure time: 2 dpf
# Method: as §1
# Danio rerio embryo [4] = assay: EC50 Pericard size_Increase; conditions: exposure time: 2 dpf
# Method: as §1
# Danio rerio embryo [5] = assay: EC10 Eye-jaw distance_Decrease; higher = less potent; conditions: exposure time: 4 dpf
# Method: as §1
# Danio rerio embryo [6] = assay: EC20 Body length_Decrease; higher = less potent
# Method: as §1
# Danio rerio embryo [7] = assay: EC50 Yolk sac size_Increase; conditions: exposure time: 4 dpf
# Method: as §1
# Danio rerio embryo [8] = conditions: exposure time: 4 dpf
# Method: as §1
# Danio rerio embryo [9] = assay: EC10 Body length_Decrease; higher = less potent
# Method: as §1
# Danio rerio embryo [10] = assay: EC10 LMR dark; higher = less potent; conditions: exposure time: 4 dpf
# Method: as §1
# Danio rerio embryo [11] = tested on: Danio rerio embryo; remark: listed apart in the source
# Method: as §1
# Danio rerio embryo [12] = assay: EC20 Yolk sac size_Increase; higher = less potent; conditions: exposure time: 4 dpf
# Method: as §1
# Danio rerio embryo [13] = assay: EC10 Any effect; higher = less potent
# Method: as §1
# Danio rerio embryo [14] = assay: EC10 Pericard size_Increase; higher = less potent; conditions: exposure time: 2 dpf
# Method: as §1
# Danio rerio embryo [15] = assay: EC10 Lack of SB; higher = less potent; conditions: exposure time: 4 dpf
# Method: as §1
# Danio rerio embryo [16] = assay: EC50 Eye-jaw distance_Decrease; conditions: exposure time: 4 dpf
# Method: as §1
# Danio rerio embryo [17] = assay: EC10 Yolk sac size_Increase; higher = less potent; conditions: exposure time: 4 dpf
# Method: as §1
# Danio rerio embryo [18] = assay: EC50 Bladder size_Decrease; conditions: exposure time: 4 dpf
# Method: as §1
# Danio rerio embryo [19] = assay: EC50 Eye size_Decrease; conditions: exposure time: 2 dpf
# Method: as §1
# Danio rerio embryo [20] = assay: EC20 Lack of SB; higher = less potent; conditions: exposure time: 4 dpf
# Method: as §1
smiles,measurement,setting,value
CC1(C)OC(=O)C(OCC2CC2)=C1c1ccc(S(C)(=O)=O)cc1 [Firocoxib],EC50 Heart rate,Danio rerio embryo [1]; exposure time: 2 dpf,181 µM
same,EC50 Heart rate,Danio rerio embryo [1]; exposure time: 4 dpf,56.2 µM
same,EC10 Eye size Decrease,Danio rerio embryo [2],77.4 µM
same,EC20 Curvature Increase,Danio rerio embryo [3],85.4 µM
same,EC50 Pericard size Increase,Danio rerio embryo [4],108 µM
same,EC10 Eye-jaw distance Decrease,Danio rerio embryo [5],79.2 µM
same,EC20 Body length Decrease,Danio rerio embryo [6]; exposure time: 2 dpf,82.7 µM
same,EC20 Body length Decrease,Danio rerio embryo [6]; exposure time: 4 dpf,94.5 µM
same,EC50 Yolk sac size Increase,Danio rerio embryo [7],128 µM
same,EC50 LMR dark,Danio rerio embryo [8],53.7 µM
same,EC10 Body length Decrease,Danio rerio embryo [9]; exposure time: 2 dpf,70.3 µM
same,EC10 Body length Decrease,Danio rerio embryo [9]; exposure time: 4 dpf,85 µM
same,EC10 LMR dark,Danio rerio embryo [10],13.9 µM
same,EC50 Any effect,Danio rerio embryo [11]; exposure time: 2 dpf,121 µM
same,EC50 Any effect,Danio rerio embryo [11]; exposure time: 4 dpf,147 µM
same,EC20 Yolk sac size Increase,Danio rerio embryo [12],68.9 µM
same,EC10 Any effect,Danio rerio embryo [13]; exposure time: 2 dpf,55.3 µM
same,EC10 Any effect,Danio rerio embryo [13]; exposure time: 4 dpf,62.1 µM
same,EC10 Pericard size Increase,Danio rerio embryo [14],40.6 µM
same,EC10 Lack of SB,Danio rerio embryo [15],34.7 µM
same,EC50 Eye-jaw distance Decrease,Danio rerio embryo [16],123 µM
same,EC10 Yolk sac size Increase,Danio rerio embryo [17],48.1 µM
same,EC50 Bladder size Decrease,Danio rerio embryo [18],56.3 µM
same,EC50 Eye size Decrease,Danio rerio embryo [19],128 µM
same,EC20 Lack of SB,Danio rerio embryo [20],43.7 µM
